# Test system: mutant Huntington (HTT) protein
# Assay: HTT Mutant HTRF iPSC assay (mHTT protein lowering)
# Assay type: cell-based
# Conditions: human iPSC derived from a HTT patient with a poly-Q49 mutation
row,SMILES,IC50
1,"COCCN1CCC(n2cc3cc(-c4cc(C(F)(F)F)c5nc(C)cn5n4)cc(F)c3n2)CC1 [Compound 373, 6-(7-fluoro-2-(1-(2-methoxyethyl)piperidin-4-yl)-2H-indazol-5-yl)-2-methyl-8-(trifluoromethyl)imidazo [1,2-b]pyridazine]",< 0.1 µM
2,"CNCCc1cn2cc(-c3cc(F)c4nn(C)cc4c3)cc(F)c2n1 [Compound 18, 2-(8-fluoro-6-(7-fluoro-2-methyl-2H-indazol-5-yl)imidazo[1,2-a]pyridin-2-yl)-N-methylethan-1-amine]",1 to 9 µM
3,"Cc1cn2nc(-c3cc(F)c4[nH]c(C5CCN(C6CCCC6)CC5)nc4c3)cc(C)c2n1 [Compound 427, 6-(2-(1-cyclopentylpiperidin-4-yl)-7-fluoro-1H-benzo[d]imidazol-5-yl)-2,8-dimethylimidazo[1,2-b]pyridazine]",< 0.1 µM
4,"Cc1cn2nc(-c3cc(F)c4nc([C@H]5CC[C@]6(CCNC6)CC5)nn4c3)cc(C)c2n1 [Compound 451, (5s,8s)-8-(6-(2,8-dimethylimidazo[1,2-b]pyridazin-6-yl)-8-fluoro-[1,2,4]triazolo[1,5-a]pyridin-2-yl)-2-azaspiro[4.5]decane]",0.1 to 1 µM
5,"Cc1csc2cc(-c3cc(F)c4nc(C5CCNCC5)cn4c3)cnc12 [Compound 35, 6-(8-fluoro-2-(piperidin-4-yl)imidazo[1,2-a]pyridin-6-yl)-3-methylthieno[3,2-b]pyridine]",1 to 9 µM
6,"Cc1cn2nc(-c3cc(F)c4nc(C[C@H]5C[C@@H](N)C5)nn4c3)cc(C)c2n1 [Compound 450, (1s,3s)-3-((6-(2,8-dimethylimidazo[1,2-b]pyridazin-6-yl)-8-fluoro-[1,2,4]triazolo[1,5-a]pyridin-2-yl)methyl)cyclobutan-1-amine]",0.1 to 1 µM
7,"Cc1nc2ccc(-c3cc(F)c4nc([C@H]5[C@@H]6CN(C)C[C@@H]65)cn4c3)nn2n1 [Compound 219, 6-(8-fluoro-2-((1R,5S,6r)-3-methyl-3-azabicyclo[3.1.0]hexan-6-yl)imidazo[1,2-a]pyridin-6-yl)-2-methyl-[1,2,4]triazolo[1,5-b]pyridazine]",0.1 to 1 µM
8,Cc1cn2nc(-c3cc(F)c4nc(C5CCNCC5)cn4c3)cc(C)c2n1 [Compound 1],< 0.1 µM
9,"Cc1cn2nc(-c3ccc4nc([C@H]5[C@@H]6CN(C)C[C@@H]65)cn4c3)cc(C)c2n1 [Compound 554, 2,8-dimethyl-6-(2-((1R,5S,6r)-3-methyl-3-azabicyclo[3.1.0]hexan-6-yl)imidazo[1,2-a]pyridin-6-yl)imidazo[1,2-b]pyridazine]",0.1 to 1 µM
10,"Cc1cn2nc(-c3cc(F)c4nc([C@@H]5CCNC6(CC6)C5)cn4c3)cc(C)c2n1 (single isomer, unassigned) [Compound 179]",0.1 to 1 µM
11,"CN1CCC(c2cn3cc(-c4cc(F)c5nn(C)cc5c4)cc(F)c3n2)CC1 [Compound 26, 7-fluoro-5-(8-fluoro-2-(1-methylpiperidin-4-yl)imidazo[1,2-a]pyridin-6-yl)-2-methyl-2H-indazole]",0.1 to 1 µM
12,"Cc1cn2nc(-c3cc(F)c4nc(NC(=O)C5CC56CCNC6)cn4c3)cc(C)c2n1 (racemic) [Compound 253, N-(6-(2,8-dimethylimidazo[1,2-b]pyridazin-6-yl)-8-fluoroimidazo[1,2-a]pyridin-2-yl)-5-azaspiro[2.4]heptane-1-carboxamide]",0.1 to 1 µM
13,"Cc1cn2nc(-c3cc(F)c4nc(C5CCNC(C)C5)cn4c3)ccc2n1 (stereo not drawn) [Compound 61, 6-(8-fluoro-2-(2-methylpiperidin-4-yl)imidazo[1,2-a]pyridin-6-yl)-2-methylimidazo[1,2-b]pyridazine]",< 0.1 µM
14,"Cc1cn2nc(-c3cc(F)c4nc(NC(=O)C5CCC(N(C)C)C5)cn4c3)cc(C)c2n1 (racemic) [Compound 128, rac-3-(dimethylamino)-N-(6-(2,8-dimethylimidazo[1,2-b]pyridazin-6-yl)-8-fluoroimidazo[1,2-a]pyridin-2-yl)cyclopentane-1-carboxamide]",< 0.1 µM
15,"Cc1cn2nc(-c3cc(F)c4nn(C5CCN(C)CC5)cc4c3)cc2c(C)n1 [Compound 371, 2-(7-fluoro-2-(1-methylpiperidin-4-yl)-2H-indazol-5-yl)-4,6-dimethylpyrazolo[1,5-a]pyrazine]",0.1 to 1 µM
16,"Cc1cn2nc(-c3cc(F)c4nc(C5CCN(C(C)C)CC5)cn4c3)cc(C)c2n1 [Compound 47, 6-(8-fluoro-2-(1-isopropylpiperidin-4-yl)imidazo[1,2-a]pyridin-6-yl)-2,8-dimethylimidazo[1,2-b]pyridazine]",< 0.1 µM
17,"Cn1cc2cc(-c3cc(F)c4[nH]c(C5CCNCC5)nc4c3)cc(F)c2n1 [Compound 141, 7-fluoro-5-(7-fluoro-2-(piperidin-4-yl)-1H-benzo[d]imidazol-5-yl)-2-methyl-2H-indazole]",1 to 9 µM
18,"Cc1cn2nc(-c3cc(F)c4nc(C5CCN(C)CC5)cn4c3)cc(C)c2n1 [Compound 111, 6-(8-fluoro-2-(1-methylpiperidin-4-yl)imidazo[1,2-a]pyridin-6-yl)-2,8-dimethylimidazo[1,2-b]pyridazine]",< 0.1 µM
19,"Cc1cc(-c2cc(F)c3nc(C4CCNCC4)cn3c2)nn2ccnc12 [Compound 102, 6-(8-fluoro-2-(piperidin-4-yl)imidazo[1,2-a]pyridin-6-yl)-8-methylimidazo[1,2-b]pyridazine]",0.1 to 1 µM
20,"CNCCc1cn2cc(-c3ccc4nn(C)cc4c3)cc(F)c2n1 [Compound 22, 2-(8-fluoro-6-(2-methyl-2H-indazol-5-yl)imidazo[1,2-a]pyridin-2-yl)-N-methylethan-1-amine]",1 to 9 µM

row,SMILES,IC50
1,"Cn1cc2cc(-c3cc(F)c4nc([C@H]5CNCCO5)cn4c3)cc(F)c2n1 (single isomer, unassigned) [Compound 70]",1 to 9 µM
2,Cc1cn2nc(-c3ccc4nc(C5CCN(C)CC5)cn4c3)cc(C)c2n1 [Compound 552],0.1 to 1 µM
3,"CN1C(=O)Cc2ccc(-c3cc(F)c4nc(C5CCNCC5)cn4c3)cc21 [Compound 55, 6-(8-fluoro-2-(piperidin-4-yl)imidazo[1,2-a]pyridin-6-yl)-1-methylindolin-2-one]",1 to 9 µM
4,Cc1cn2nc(-c3cc(F)c4nc(C56CC(N)(C5)C6)cn4c3)cc(C)c2n1 [Compound 91],< 0.1 µM
5,"CCc1c[nH]c2ncc(-c3cc(F)c4nc(C5CCNCC5)cn4c3)cc12 [Compound 40, 6-(3-ethyl-1H-pyrrolo[2,3-b]pyridin-5-yl)-8-fluoro-2-(piperidin-4-yl)imidazo[1,2-a]pyridine]",1 to 9 µM
6,"Cc1cn2nc(-c3cc(F)c4nn(C5CCNCC5)nc4c3)cc(C3CC3)c2n1 [Compound 387, 6-(8-cyclopropyl-2-methylimidazo[1,2-b]pyridazin-6-yl)-4-fluoro-2-(piperidin-4-yl)-2H-benzo[d][1,2,3]triazole]",0.1 to 1 µM
7,"Cc1cn2nc(-c3cc(F)c4nc(C5CCNC6(CC6)C5)cn4c3)cc(C)c2n1 (stereo not drawn) [Compound 110, 6-(8-fluoro-2-(4-azaspiro[2.5]octan-7-yl)imidazo[1,2-a]pyridin-6-yl)-2,8-dimethylimidazo[1,2-b]pyridazine]",< 0.1 µM
8,"Cn1nc2cc(-c3cc(F)c4nc(C5CCNCC5)cn4c3)cc(F)c2n1 [Compound 87, 4-fluoro-6-(8-fluoro-2-(piperidin-4-yl)imidazo[1,2-a]pyridin-6-yl)-2-methyl-2H-benzo[d][1,2,3]triazole]",0.1 to 1 µM
9,"Cc1cn2cc(-c3cc(F)c4nc(C5CCNCC5)cn4c3)ccc2n1 [Compound 96, 8-fluoro-2′-methyl-2-(piperidin-4-yl)-6,6′-biimidazo[1,2-a]pyridine]",1 to 9 µM
10,"Cc1cn2nc(-c3cc(F)c4nc(N5CCCC(N6CCCCC6)C5)oc4c3)cc(C)c2n1 (stereo not drawn) [Compound 490, 2-([1,3′-bipiperidin]-1′-yl)-6-(2,8-dimethylimidazo[1,2-b]pyridazin-6-yl)-4-fluorobenzo[d]oxazole]",0.1 to 1 µM
11,"Cc1cn2nc(-c3cc(F)c4nc(NC(=O)CC5CCNCC5)cn4c3)cc(C)c2n1 [Compound 284, N-(6-(2,8-dimethylimidazo[1,2-b]pyridazin-6-yl)-8-fluoroimidazo[1,2-a]pyridin-2-yl)-2-(piperidin-4-yl)acetamide]",0.1 to 1 µM
12,"Cn1nc2cc(-c3cc(F)c4[nH]c(C5CCNCC5)nc4c3)cc(F)c2n1 [Compound 148, 4-fluoro-6-(7-fluoro-2-(piperidin-4-yl)-1H-benzo[d]imidazol-5-yl)-2-methyl-2H-benzo[d][1,2,3]triazole]",0.1 to 1 µM
13,"CCN1C[C@@H]2[C@H](C1)[C@H]2c1cn2cc(-c3cc(C)c4nc(C)cn4n3)cc(F)c2n1 [Compound 188, 6-(2-((1R,5S,6r)-3-ethyl-3-azabicyclo[3.1.0]hexan-6-yl)-8-fluoroimidazo[1,2-a]pyridin-6-yl)-2,8-dimethylimidazo[1,2-b]pyridazine]",0.1 to 1 µM
14,"Cc1cn2nc(-c3cc(F)c4nc(N(C)C5CCNC(C)(C)C5)oc4c3)cc(C)c2n1 (single isomer, unassigned) [Compound 509]",0.1 to 1 µM
15,"Cc1cn2nc(-c3cc(F)c4nc(C5CCN(C6CCC6)CC5)cn4c3)cc(C)c2n1 [Compound 69, 6-[2-(1-cyclobutyl-4-piperidyl)-8-fluoro-imidazo[1,2-a]pyridin-6-yl]-2,8-dimethyl-imidazo[1,2-b]pyridazine]",< 0.1 µM
16,"Cc1cn2nc(-c3cc(F)c4nc(C5CCN(C6COC6(C)C)CC5)cn4c3)cc(C)c2n1 (stereo not drawn) [Compound 210, 6-(2-(1-(2,2-dimethyloxetan-3-yl)piperidin-4-yl)-8-fluoroimidazo[1,2-a]pyridin-6-yl)-2,8-dimethylimidazo[1,2-b]pyridazine]",0.1 to 1 µM
17,"Cc1cn2nc(-c3cc(F)c4nc(C5CCN(C)CC5)nn4c3)cc(C)c2n1 [Compound 434, 6-(2,8-dimethylimidazo[1,2-b]pyridazin-6-yl)-8-fluoro-2-(1-methylpiperidin-4-yl)-[1,2,4]triazolo[1,5-a]pyridine]",0.1 to 1 µM
18,"Cc1nc2cc(-c3cc(F)c4nc(C5CCNCC5)cn4c3)ccc2[nH]1 [Compound 50, 5-(8-fluoro-2-(piperidin-4-yl)imidazo[1,2-a]pyridin-6-yl)-2-methyl-1H-benzo[d]imidazole]",1 to 9 µM
19,"Cc1cn2nc(-c3cc(F)c4[nH]c(C5C6CNCC65)nc4c3)cc(C)c2n1 (stereo not drawn) [Compound 429, 6-(2-(3-azabicyclo[3.1.0]hexan-6-yl)-7-fluoro-1H-benzo[d]imidazol-5-yl)-2,8-dimethylimidazo[1,2-b]pyridazine]",< 0.1 µM

# — patent publication US20250353841A1 (BIOGEN MA INC., priority 2022, published 2025)
